Counter-ions that a name gives are not always drawn. Like-named read-outs stand apart in the source and are kept apart here.
Columns and labels:
[1] = molecular target: T1, GABA A receptor α1β3γ2 (hα1) (Homo sapiens, UniProt P14867+P18507); assay: [3H]flumazenil competition binding, membranes of HEK293 cells expressing human GABA A α1β3γ2
T1 construct: expressed in transfected cells; host or cells: HEK293, transiently transfected; membranes
Procedure: (§1) The affinity of compounds at GABA A receptor subtypes was measured by competition for [^3H]flumazenil (85 Ci/mmol; Roche) binding to HEK293 cells expressing rat (stably transfected) or human (transiently transfected) receptors of composition α1β3γ2, α2β3γ2, α3β3γ2 and α5β3γ2.
(§2) Cell pellets were suspended in Krebs-tris buffer (4.8 mM KCl, 1.2 mM CaCl2, 1.2 mM MgCl2, 120 mM NaCl, 15 mM Tris; pH 7.5; binding assay buffer), homogenized by polytron for ca. 20 sec on ice and centrifuged for 60 min at 4° C. (50000 g; Sorvall, rotor: SM24=20000 rpm). The cell pellets were resuspended in Krebs-tris buffer and homogenized by polytron for ca. 15 sec on ice. Protein was measured (Bradford method, Bio-Rad) and aliquots of 1 mL were prepared and stored at −80° C.
(§3) Radioligand binding assays were carried out in a volume of 200 μL (96-well plates) which contained 100 μL of cell membranes, [^3H]flumazenil at a concentration of 1 nM for α1, α2, α3 subunits and 0.5 nM for α5 subunits and the test compound in the range of 10^−10-3×10^−6 M.
(§4) Nonspecific binding was defined by 10^−5 M diazepam and typically represented less than 5% of the total binding. Assays were incubated to equilibrium for 1 hour at 4° C. and harvested onto GF/C uni-filters (Packard) by filtration using a Packard harvester and washing with ice-cold wash buffer (50 mM Tris; pH 7.5). After drying, filter-retained radioactivity was detected by liquid scintillation counting. Ki values were calculated using Excel-Fit (Microsoft) and are the means of two determinations.

[2] = molecular target: T2, GABA A receptor α5β3γ2 (hα5) (Homo sapiens, UniProt P18507+P31644); assay: [3H]flumazenil competition binding, membranes of HEK293 cells expressing human GABA A α5β3γ2
T2 construct: expressed in transfected cells; host or cells: HEK293, transiently transfected; membranes
Procedure: as §1, §2, §3, §4

[3] = [3H]flumazenil 1 nM, 1 hour at 4° C., means of two determinations, read-out: Ki[nM] hα1
[4] = [3H]flumazenil 0.5 nM, 1 hour at 4° C., means of two determinations, read-out: Ki[nM] hα5

Compound	Ki [1, 3]	Ki [2]	Ki [1]	Ki [2, 4]
O=C1OCCN1Cc1nc2n(n1)Cc1c(Cl)ncn1-c1ccc(Cl)cc1-2 [Example 316, 3,10-Dichloro-6-(2-oxo-oxazolidin-3-ylmethyl)-9H-imidazo[1,5-a][1,2,4]triazolo[1,5-d][1,4]benzodiazepine]	116 nM	0.9 nM	–	–
O=C1SCCN1Cc1nc2n(n1)Cc1c(Cl)ncn1-c1ccc(Br)cc1-2 [Example 312, 3-Bromo-10-chloro-6-(2-oxo-thiazolidin-3-ylmethyl)-9H-imidazo[1,5-a][1,2,4]triazolo[1,5-d][1,4]benzodiazepine]	–	–	60 nM	0.5 nM
Clc1ccc2c(c1)-c1nc(Cn3nc4ccccc4n3)nn1Cc1c(Cl)ncn1-2 [Example 21, 6-Benzotriazol-2-ylmethyl-3,10-dichloro-9H-imidazo[1,5-a][1,2,4]triazolo[1,5-d][1,4]benzodiazepine]	133 nM	–	–	–
Clc1ccc2c(c1)-c1nc(Cn3nnc4ccccc43)nn1Cc1c(Cl)ncn1-2 [Example 22, 6-Benzotriazol-1-ylmethyl-3,10-dichloro-9H-imidazo[1,5-a][1,2,4]triazolo[1,5-d][1,4]benzodiazepine]	–	–	53 nM	0.4 nM
Cc1ncn2c1Cn1nc(Cn3ccnn3)nc1-c1cc(Cl)ccc1-2 [Example 364, 3-Chloro-10-methyl-6-[1,2,3]triazol-1-ylmethyl-9H-imidazo[1,5-a][1,2,4]triazolo[1,5-d][1,4]benzodiazepine hydrochloride (1:1)]	134 nM	–	–	–
Cc1ncn2c1Cn1nc(Cc3ccncc3)nc1-c1ccccc1-2 [Example 267, 10-Methyl-6-(pyridine-4-ylmethyl)-9H-imidazo[1,5-a][1,2,4]triazolo[1,5-d][1,4]benzodiazepine]	–	–	20.4 nM	0.25 nM
Clc1ccc2c(c1)-c1nc(Cn3ccnn3)nn1Cc1c(Cl)ncn1-2 [Example 11, 3,10-Dichloro-6-[1,2,3]triazol-1-ylmethyl-9H-imidazo[1,5-a][1,2,4]triazolo[1,5-d][1,4]benzodiazepine]	–	–	48.3 nM	0.5 nM
Cc1ncn2c1Cn1nc(Cn3ccccc3=O)nc1-c1ccccc1-2 [Example 378, 10-Methyl-6-(2-oxo-2H-pyridin-1-ylmethyl)-9H-imidazo[1,5-a][1,2,4]triazolo[1,5-d][1,4]benzodiazepine]	–	–	42.1 nM	0.6 nM
Ethyl 3-bromo-6-methoxymethyl-9H-imidazo[1,5-a][1,2,4]triazolo[1,5-d][1,4]benzodiazepine-10-carboxylate [Example 38]	6.9 nM	–	–	0.4 nM
Cc1ncn2c1Cn1nc(Cc3ccccn3)nc1-c1ccccc1-2 [Example 261, 10-Methyl-6-(pyridine-2-ylmethyl)-9H-imidazo[1,5-a][1,2,4]triazolo[1,5-d][1,4]benzodiazepine]	–	–	26.6 nM	0.7 nM
Cc1ccc(Cc2nc3n(n2)Cc2c(C)ncn2-c2ccc(Br)cc2-3)cn1 [Example 124, 3-Bromo-10-methyl-6-(6-methyl-pyridin-3-ylmethyl)-9H-imidazo[1,5-a][1,2,4]triazolo[1,5-d][1,4]benzodiazepine]	219 nM	–	–	–
Cc1noc(Cc2nc3n(n2)Cc2c(Cl)ncn2-c2ccc(Br)cc2-3)n1 [Example 72, 3-Bromo-10-chloro-6-(3-methyl-[1,2,4]oxadiazol-5-ylmethyl)-9H-imidazo[1,5-a][1,2,4]triazolo[1,5-d][1,4]benzodiazepine]	–	–	98.2 nM	0.7 nM
O=C(Cc1nc2n(n1)Cc1c(Cl)ncn1-c1ccc(Br)cc1-2)NCc1cccnc1 [Example 63, 3-Bromo-10-chloro-6-{[(Pyridin-3-ylmethyl)-carbamoyl]-methyl}-9H-imidazo[1,5-a][1,2,4]triazolo[1,5-d][1,4]benzodiazepine]	–	–	64.7 nM	0.8 nM
COCC1CN(Cc2nc3n(n2)Cc2c(Cl)ncn2-c2ccc(Br)cc2-3)C(=O)O1 (stereo not shown) [Example 83, 3-Bromo-10-chloro-6-(5-methoxymethyl-2-oxo-oxazolidin-3-ylmethyl)-9H-imidazo[1,5-a][1,2,4]triazolo[1,5-d][1,4]benzodiazepine]	113 nM	–	–	–
O=C(Cc1nc2n(n1)Cc1c(Cl)ncn1-c1ccc(Br)cc1-2)NCC1CC1 [Example 64, 3-Bromo-10-chloro-6-[(cyclopropylmethyl-carbamoyl)-methyl]-9H-imidazo[1,5-a][1,2,4]triazolo[1,5-d][1,4]benzodiazepine]	–	–	68.8 nM	0.5 nM
O=C(Cc1nc2n(n1)Cc1c(Cl)ncn1-c1ccc(Br)cc1-2)NC1CCOCC1 [Example 62, 3-Bromo-10-chloro-6-[(tetrahydro-pyran-4-ylcarbamoyl)-methyl]-9H-imidazo[1,5-a][1,2,4]triazolo[1,5-d][1,4]benzodiazepine]	–	–	88.4 nM	0.7 nM
Cc1ncn2c1Cn1nc(Cn3ncccc3=O)nc1-c1cc(Br)ccc1-2 [Example 330, 3-Bromo-10-methyl-6-(6-oxo-6H-pyridazin-1-ylmethyl)-9H-imidazo[1,5-a][1,2,4]triazolo[1,5-d][1,4]benzodiazepine hydrochloride (1:1)]	134 nM	0.7 nM	–	–
O=C(Cc1nc2n(n1)Cc1c(Cl)ncn1-c1ccc(Br)cc1-2)NCCO [Example 65, 3-Bromo-10-chloro-6-[(2-hydroxy-ethylcarbamoyl)-methyl]-9H-imidazo[1,5-a][1,2,4]triazolo[1,5-d][1,4]benzodiazepine]	–	–	149 nM	–
OC(c1cccnc1)c1nc2n(n1)Cc1c(Cl)ncn1-c1ccc(Br)cc1-2 (stereo not shown) [Example 58, 3-Bromo-10-chloro-6-(hydroxy-pyridin-3-yl-methyl)-9H-imidazo[1,5-a][1,2,4]triazolo[1,5-d][1,4]benzodiazepine]	69.4 nM	–	–	0.7 nM
Cc1noc(Cc2nc3n(n2)Cc2c(C)ncn2-c2ccc(Br)cc2-3)n1 [Example 349, 3-Bromo-10-methyl-6-(3-methyl-[1,2,4]oxadiazol-5-ylmethyl)-9H-imidazo[1,5-a][1,2,4]triazolo[1,5-d][1,4]benzodiazepine]	469 nM	0.9 nM	–	–
Clc1ccc2c(c1)-c1nc(Cn3cncn3)nn1Cc1c(Cl)ncn1-2 [Example 12, 3,10-Dichloro-6-[1,2,4]triazol-1-ylmethyl-9H-imidazo[1,5-a][1,2,4]triazolo[1,5-d][1,4]benzodiazepine]	–	–	51.8 nM	0.8 nM
3-Bromo-10-chloro-6-(hydroxy-phenyl-ethyl)-9H-imidazo[1,5-a][1,2,4]triazolo[1,5-d][1,4]benzodiazepine [Example 54]	34.6 nM	–	–	0.9 nM
Clc1ccc2c(c1)-c1nc(Cn3nccn3)nn1Cc1c(Cl)ncn1-2 [Example 10, 3,10-Dichloro-6-[1,2,3]triazol-2-ylmethyl-9H-imidazo[1,5-a][1,2,4]triazolo[1,5-d][1,4]benzodiazepine]	–	–	63.3 nM	0.4 nM
COc1ccccc1Cc1nc2n(n1)Cc1c(C)ncn1-c1ccc(Br)cc1-2 [Example 168, 3-Bromo-6-(2-methoxy-benzyl)-10-methyl-9H-imidazo[1,5-a][1,2,4]triazolo[1,5-d][1,4]benzodiazepine hydrochloride (1:1)]	–	–	63.4 nM	–
Cc1ncn2c1Cn1nc(Cn3ccnn3)nc1-c1cc(Br)ccc1-2 [Example 162, 3-Bromo-10-methyl-6-[1,2,3]triazol-1-ylmethyl-9H-imidazo[1,5-a][1,2,4]triazolo[1,5-d][1,4]benzodiazepine hydrochloride (1:1)]	152 nM	–	–	–
Cc1cc(Cc2nc3n(n2)Cc2c(C)ncn2-c2ccc(Cl)cc2-3)on1 [Example 183, 3-Chloro-10-methyl-6-(3-methyl-isoxazol-5-ylmethyl)-9H-imidazo[1,5-a][1,2,4]triazolo[1,5-d][1,4]benzodiazepine hydrochloride (1:1)]	279 nM	0.6 nM	–	–
Cc1cc(Cc2nc3n(n2)Cc2c(C)ncn2-c2ccc(Cl)cc2-3)ccn1 [Example 191, 3-Chloro-10-methyl-6-(2-methyl-pyridin-4-ylmethyl)-9H-imidazo[1,5-a][1,2,4]triazolo[1,5-d][1,4]benzodiazepine]	266 nM	–	–	–
O=C1OCCN1Cc1nc2n(n1)Cc1c(Cl)ncn1-c1ccc(Br)cc1-2 [Example 50]	–	–	85.7 nM	–
Cc1ncn2c1Cn1nc(Cc3ccn[nH]3)nc1-c1ccccc1-2 [Example 380, 10-Methyl-6-(2H-pyrazol-3-ylmethyl)-9H-imidazo[1,5-a][1,2,4]triazolo[1,5-d][1,4]benzodiazepine hydrochloride (1:1)]	–	–	56.6 nM	–
Clc1ccc2c(c1)-c1nc(Cn3cc4ccccc4n3)nn1Cc1c(Cl)ncn1-2 [Example 26, 3,10-Dichloro-6-indazol-2-ylmethyl-9H-imidazo[1,5-a][1,2,4]triazolo[1,5-d][1,4]benzodiazepine]	111 nM	–	–	–
